This passage reports IC50 results from patent US8901118B2, “Compounds and methods for kinase modulation, and indications therefor” (Plexxikon Inc., priority 2010, dated 2014).

One experiment addresses Fms kinase (Homo sapiens, UniProt P07333). The experiment is described as follows: Fms kinase biochemical activity assay (AlphaScreen, biotin-(E4Y)10 phosphorylation). The settings on record: 100 μM ATP; read-out: Biochemical Inhibition IC50 Fms. An outline of the steps:
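Fms kinase (1 ng/well) phosphorylating 30 nM biotin-(E4Y)10 with 100 μM ATP in 25 mM Hepes pH 7.5, MgCl2/MnCl2, 5% DMSO, 20 min at 30 °C. Phosphotyrosine detected by AlphaScreen streptavidin donor and PY20 acceptor beads; IC50 from signal versus compound concentration.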
(In Alpha technology, singlet oxygen from a donor bead excites a nearby acceptor bead.)

The next experiment addresses T1, BCR-FMS BaF3 cells (Homo sapiens, UniProt P07333).
T1 construct: fused on or other part: P11274 (Breakpoint cluster region protein)
T1 sequence (P07333 582-910): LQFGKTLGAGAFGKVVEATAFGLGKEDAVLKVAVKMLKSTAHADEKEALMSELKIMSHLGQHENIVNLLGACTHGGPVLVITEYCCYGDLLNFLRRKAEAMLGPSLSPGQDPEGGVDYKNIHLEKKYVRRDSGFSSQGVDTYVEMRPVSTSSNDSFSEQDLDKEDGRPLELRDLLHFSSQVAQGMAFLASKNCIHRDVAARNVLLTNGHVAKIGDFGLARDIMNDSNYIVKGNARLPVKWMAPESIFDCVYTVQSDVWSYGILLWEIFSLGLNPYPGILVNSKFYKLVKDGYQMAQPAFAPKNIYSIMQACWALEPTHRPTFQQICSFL
Put plainly: BaF3 BCR-FMS cell proliferation assay (ATPlite). It counts as cell-based. The following applies: read-out: Inhibition of Cell Proliferation IC50, BCR/BaF3 Fms. In a few lines:
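BaF3 lines were seeded at 10,000 cells/well in growth medium with 1 mg/mL G418 but no IL-3, and MV-4-11 cells at 25,000 cells/well; plates were left overnight at 37 °C. Compounds were added as an 8-point 1:3 series with a top concentration of 10 μM and incubated 3 days. IC50 was taken from ATPlite luminescence.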
In general terms: Cellular ATP, detected with luciferase, serves as a proxy for viable cell number.

The next experiment concerns SKNSH cells. The experiment is described as follows: SKNSH (human neuroblastoma) cell proliferation assay (ATPlite). Format: cell-based. The settings on record: SK-N-SH, read-out: Inhibition of Cell Proliferation IC50, SKNSH. An outline of the steps: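 SK-N-SH human neuroblastoma cells grown in RPMI with 10% FBS were pelleted, resuspended at 2×10^4 cells/mL, and plated at 3,000 cells per well (150 μL) in 96-well plates, then kept overnight at 37° C. in 5% CO2. Compounds in an 8-point 1:3 DMSO series were added as 0.75 μL aliquots.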

Where only a bound is given, the exact number is not on record here.

Fms kinase, sequence (P07333 20-972): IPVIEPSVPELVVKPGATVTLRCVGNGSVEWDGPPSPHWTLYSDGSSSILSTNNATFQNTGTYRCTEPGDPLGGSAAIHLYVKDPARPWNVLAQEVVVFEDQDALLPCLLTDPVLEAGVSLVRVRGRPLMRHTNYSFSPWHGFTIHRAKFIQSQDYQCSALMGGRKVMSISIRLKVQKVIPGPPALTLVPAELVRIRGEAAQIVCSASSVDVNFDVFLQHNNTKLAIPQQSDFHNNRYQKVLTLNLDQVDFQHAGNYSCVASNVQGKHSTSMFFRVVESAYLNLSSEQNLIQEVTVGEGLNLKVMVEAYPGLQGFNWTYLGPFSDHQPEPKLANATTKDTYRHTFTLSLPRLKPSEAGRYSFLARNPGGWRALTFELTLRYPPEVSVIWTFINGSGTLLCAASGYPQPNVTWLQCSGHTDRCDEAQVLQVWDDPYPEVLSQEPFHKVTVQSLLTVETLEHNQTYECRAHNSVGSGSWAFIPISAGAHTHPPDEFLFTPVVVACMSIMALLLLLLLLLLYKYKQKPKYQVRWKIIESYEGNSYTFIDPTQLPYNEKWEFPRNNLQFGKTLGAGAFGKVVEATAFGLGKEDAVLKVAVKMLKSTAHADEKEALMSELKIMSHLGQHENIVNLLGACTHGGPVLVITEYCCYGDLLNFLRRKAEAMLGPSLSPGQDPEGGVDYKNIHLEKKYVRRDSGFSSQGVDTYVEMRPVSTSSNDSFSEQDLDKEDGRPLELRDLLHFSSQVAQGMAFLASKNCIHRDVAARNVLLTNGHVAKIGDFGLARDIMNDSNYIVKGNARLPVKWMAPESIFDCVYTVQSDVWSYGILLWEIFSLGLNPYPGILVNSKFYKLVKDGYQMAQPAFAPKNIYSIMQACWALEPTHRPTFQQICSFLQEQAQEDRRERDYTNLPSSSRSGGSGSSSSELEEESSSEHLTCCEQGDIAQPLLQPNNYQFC

Turning to `CNc1ncnc2[nH]cc(C(=O)c3ccc(NC4CCCCC4)nc3Cl)c12` [Compound P-4110, [2-chloro-6-(cyclohexylamino)-3-pyridyl]-[4-(methylamino)-7H-pyrrolo[2,3-d]pyrimidin-5-yl]methanone], the IC50 on Fms kinase was < 100 nM; on BCR-FMS BaF3 cells, < 100 nM; in the experiment on SKNSH cells, < 10000 nM.
